This passage reports IC50 and EC50 results from ChEMBL document CHEMBL1151995, “Evaluation of tea polyphenols as anti-HIV agents” (Bioorg Med Chem Lett, 1996).

Structures are written as SMILES. A value given as a limit tells only on which side of the number the result lay.

In one assay the test system is H9. The assay can be described thus: Inhibition of uninfected H9 lymphocytic cell growth. The format is functional, cell-based. The following applies: Homo sapiens.
Assay [1] relates to Human immunodeficiency virus 1. The assay can be described thus: Inhibition of HIV-1 replication in H9 (human lymphoma) cells; No suppression. Type of assay: functional, organism-based.

As a reminder, the IC50 is the concentration that inhibits the measured activity by half. In the assay with H9, `O=C(O[C@@H]1Cc2c(O)cc(O)cc2O[C@@H]1c1ccc(O)c(O)c1)c1cc(O)c(O)c(O)c1` [EPICATECHIN GALLATE] registered an IC50 above 10 µg/mL. For the same molecule, the EC50 entry in assay [1] is on record as “No effect”.
